From patent US9950993B2 (Rutgers, The State University of New Jersey, priority 2015, dated 2018)

Tested on: Escherichia coli W4573
Assay: Test A: MIC-based assay for efflux pump inhibition (enhancement of minocycline MIC)
Format: cell-based
Conditions: ratio of minocycline MIC in absence to MIC in presence of test compound, test compound at 12.5 ug/ml (27-48 μM)
Protocol: Test A. Minimum Inhibitory Concentration (MIC)-Based Assay for Efflux Pump Inhibition:
MIC-based assays were used to evaluate the impact of potential efflux pump inhibiting (EPI) compounds on the MIC of minocycline, an antibiotic known to be a substrate for Gram-negative bacterial efflux pumps. The assays were conducted in accordance with Clinical and Laboratory Standards Institute (CLSI) guidelines for broth microdilution, with the modification that assays were conducted in the presence and absence of the test EPI compounds. When present, the EPI compounds were added to cation-adjusted Mueller-Hinton (CAMH) broth (Becton, Dickinson and Co., Franklin Lakes, N.J.) at a final concentration of 12.5 µg/mL.
Log-phase Gram-negative bacteria were added to 96-well microtiter plates (at 5×10^5 colony forming units (CFU) per mL) containing two-fold serial dilutions of minocycline in CAMH broth either in the absence or presence of the test EPI compounds. In all assays, each serial dilution of minocycline was present in duplicate. The final volume in each well was 0.1 mL, and the microtiter plates were incubated aerobically for 24 hours at 37° C. Bacterial growth was then monitored by measuring the optical density (OD) at 600 nm using a VersaMax® plate reader (Molecular Devices, Inc., Sunnyvale, Calif.), with the MIC being defined as the lowest compound concentration at which growth was ≥90% inhibited compared to antibiotic-free control. The following Gram-negative bacterial strains were included in these assays:
Escherichia coli W4573, ATCC 25922, and ATCC BAA-201 (an extended spectrum […] (ESBL)-producing strain that expresses the TEM-3 β-lactamase).
The efflux pump mutant E. coli strain N43 (acrA1) was used as a positive control.
The enhancement is the ratio of the minocycline MIC in the absence of test compound to the minocycline MIC in the presence of test compound.

NCCC[C@H](N)CNC(=O)C(CCc1ccccc1)CCc1ccccc1 [Example 1, (S)—N-(2,5-diaminopentyl)-2-phenethyl-4-phenylbutanamide]
Enhancement: 8

NCCC[C@@H](N)CNC(=O)C(CCc1ccccc1)CCc1ccccc1 [Example 2, (R)—N-(2,5-diaminopentyl)-2-phenethyl-4-phenylbutanamide]
Enhancement: 64

NCC[C@H](N)CNC(=O)C(CCc1ccccc1)CCc1ccccc1 [Example 3, (S)—N-(2,4-diaminobutyl)-2-phenethyl-4-phenylbutanamide]
Enhancement: 8

NC[C@H](N)CNC(=O)C(CCc1ccccc1)CCc1ccccc1 [Example 4, (S)—N-(2,3-diaminopropyl)-2-phenethyl-4-phenylbutanamide]
Enhancement: 1

NC[C@@H](N)CCCNC(=O)C(CCc1ccccc1)CCc1ccccc1 [Example 5, (S)—N-(4,5-diaminopentyl)-2-phenethyl-4-phenylbutanamide]
Enhancement: 2

NCCC[C@H](N)CNC(=O)C(CCc1ccccc1)Cc1ccccc1 (stereo partly drawn) [Example 6, 2-benzyl-N—((S)-2,5-diaminopentyl)-4-phenylbutanamide]
Enhancement: 4

NCCC[C@H](N)CNC(=O)C(Cc1ccccc1)Cc1ccccc1 [Example 7, (S)-2-benzyl-N-(2,5-diaminopentyl)-3-phenylpropanamide]
Enhancement: 8

NCCC[C@H](N)CNC(=O)C(c1ccccc1)c1ccccc1 [Example 8, (S)—N-(2,5-diaminopentyl)-2,2-diphenylacetamide]
Enhancement: 4

NCCC[C@H](N)CNC(=O)CC(c1ccccc1)c1ccccc1 [Example 9, (S)—N-(2,5-diaminopentyl)-3,3-diphenylpropanamide]
Enhancement: 8

NCCC[C@H](N)CNC(=O)CCCc1ccccc1 [Example 10, (S)—N-(2,5-diaminopentyl)-4-phenylbutanamide]
Enhancement: 4

COc1ccc(CCC(CCc2ccccc2)C(=O)NC[C@@H](N)CCCN)cc1 (stereo partly shown) [Example 11]
Enhancement: 4

NCCC[C@H](N)CNC(=O)CC(Cc1ccccc1)Cc1ccccc1 [Example 12, (S)-3-Benzyl-N-(2,5-diaminopentyl)-4-phenylbutanamide]
Enhancement: 16

NCCC[C@H](N)CNC(=O)CC(CCc1ccccc1)CCc1ccccc1 [Example 13, (S)—N-(2,5-diaminopentyl)-3-phenethyl-5-phenylpentanamide]
Enhancement: 512
